In brackets after ≈: the same amount, converted by molar mass.
Key:
Cell membrane [1] = experiment: Effect on surface tension of Staphylococcus aureus CECT 976 assessed as electron acceptor component at 0.5 times of MIC incubated for 1 hr (reference value: 0.5 +/- 0.1 mJ/m2); assay type: subcellular
Cell membrane [2] = experiment: Effect on surface tension of Staphylococcus aureus CECT 976 assessed as electron acceptor component at 0.25 times of MIC incubated for 1 hr (reference value: 0.5 +/- 0.1 mJ/m2); assay type: subcellular
Cell membrane [3] = experiment: Effect on surface tension of Staphylococcus aureus CECT 976 assessed as Lewis acid-base at MIC incubated for 1 hr (reference value: 10.5 +/- 1.3 mJ/m2); assay type: subcellular
Cell membrane [4] = experiment: Effect on surface tension of Staphylococcus aureus CECT 976 assessed as Lewis acid-base at 0.5 times of MIC incubated for 1 hr (reference value: 10.5 +/- 1.3 mJ/m2); assay type: subcellular
Cell membrane [5] = experiment: Effect on surface tension of Staphylococcus aureus CECT 976 assessed as Lewis acid-base at 0.25 times of MIC incubated for 1 hr (reference value: 10.5 +/- 1.3 mJ/m2); assay type: subcellular
Cell membrane [6] = experiment: Effect on surface tension of Staphylococcus aureus CECT 976 assessed as Lifshitz-van der Waals at MIC incubated for 1 hr (reference value: 40.5 +/- 0.0 mJ/m2); assay type: subcellular
Cell membrane [7] = experiment: Disruption of cytoplasmic membrane integrity in Staphylococcus aureus CECT 976 assessed as potassium ion release at MBC incubated for 1 hr by flame emission and atomic absorption spectroscopy (reference value: 0 mg/L); assay type: subcellular
Cell membrane [8] = experiment: Disruption of cytoplasmic membrane integrity in Staphylococcus aureus CECT 976 assessed as potassium ion release at MIC incubated for 1 hr by flame emission and atomic absorption spectroscopy (reference value: 0 mg/L); assay type: subcellular
Cell membrane [9] = experiment: Disruption of cytoplasmic membrane integrity in Staphylococcus aureus CECT 976 assessed as potassium ion release at 0.5 times of MIC incubated for 1 hr by flame emission and atomic absorption spectroscopy (reference value: 0 mg/L); assay type: subcellular
Cell membrane [10] = experiment: Disruption of cytoplasmic membrane integrity in Staphylococcus aureus CECT 976 assessed as potassium ion release at 0.25 times of MIC incubated for 1 hr by flame emission and atomic absorption spectroscopy (reference value: 0 mg/L); assay type: subcellular
Cell membrane [11] = experiment: Destabilization of cytoplasmic membrane integrity in Staphylococcus aureus CECT 976 at MIC incubated for 1 hr by epifluorescence microscope analysis (reference value: 10.6 %); assay type: subcellular
Cell membrane [12] = experiment: Destabilization of cytoplasmic membrane integrity in Staphylococcus aureus CECT 976 at 0.5 times of MIC incubated for 1 hr by epifluorescence microscope analysis (reference value: 10.6 %); assay type: subcellular
Cell membrane [13] = experiment: Destabilization of cytoplasmic membrane integrity in Staphylococcus aureus CECT 976 at 0.25 times of MIC incubated for 1 hr by epifluorescence microscope analysis (reference value: 10.6 %); assay type: subcellular
Staphylococcus aureus [14] = experiment: Bactericidal activity against Staphylococcus aureus XU212 assessed as reduction in bacterial growth incubated for 24 hrs by broth microdilution method; assay type: functional
Staphylococcus aureus [15] = experiment: Bactericidal activity against Staphylococcus aureus SA1199B assessed as reduction in bacterial growth incubated for 24 hrs by broth microdilution method; assay type: functional
Staphylococcus aureus [16] = experiment: Bactericidal activity against Staphylococcus aureus RN4220 assessed as reduction in bacterial growth incubated for 24 hrs by broth microdilution method; assay type: functional
Staphylococcus aureus [17] = experiment: Bactericidal activity against Staphylococcus aureus CECT 976 incubated for 24 hrs by broth microdilution method; assay type: functional
[18] = Antibacterial activity against Paracoccus yeei assessed as reduction in bacterial growth at pH 5 incubated for 24 hrs by broth microdilution method; assay type: functional
Staphylococcus aureus [19] = experiment: Antibacterial activity against Staphylococcus aureus assessed as reduction in bacterial growth incubated for 24 hrs by broth microdilution method; assay type: functional
Staphylococcus aureus [20] = experiment: Antibacterial activity against Staphylococcus aureus assessed as reduction in bacterial growth at pH 5 incubated for 24 hrs by broth microdilution method; assay type: functional
Staphylococcus aureus [21] = experiment: Antibacterial activity against Staphylococcus aureus assessed as reduction in bacterial growth at pH 6 incubated for 24 hrs by broth microdilution method; assay type: functional
Staphylococcus aureus [22] = experiment: Antibacterial activity against Staphylococcus aureus assessed as reduction in bacterial growth at pH 7 incubated for 24 hrs by broth microdilution method; assay type: functional
Staphylococcus aureus [23] = experiment: Antibacterial activity against Staphylococcus aureus XU212 assessed as reduction in bacterial growth incubated for 24 hrs by broth microdilution method; assay type: functional
Staphylococcus aureus [24] = experiment: Antibacterial activity against Staphylococcus aureus SA1199B assessed as reduction in bacterial growth incubated for 24 hrs by broth microdilution method; assay type: functional
Staphylococcus aureus [25] = experiment: Antibacterial activity against Staphylococcus aureus RN4220 assessed as reduction in bacterial growth incubated for 24 hrs by broth microdilution method; assay type: functional
Staphylococcus aureus [26] = experiment: Antibacterial activity against Staphylococcus aureus CECT 976 assessed as reduction in bacterial growth incubated for 24 hrs by broth microdilution method; assay type: functional
Streptococcus pneumoniae = experiment: Inhibition of biofilm formation in Streptococcus pneumoniae incubated for 24 hrs by crystal violet staining based assay relative to control; assay type: functional
Escherichia coli = experiment: Inhibition of biofilm formation in Escherichia coli incubated for 24 hrs by crystal violet staining based assay relative to control; assay type: functional
Staphylococcus aureus [27] = experiment: Inhibition of cell adhesion in Staphylococcus aureus CECT 976 assessed as decrease in CFU at 5 times of MIC incubated upto 24 hrs relative to control; assay type: functional; conditions: time hrs <=24
Cell membrane [28] = experiment: Effect on surface tension of Staphylococcus aureus CECT 976 assessed as Lifshitz-van der Waals at 0.25 times of MIC incubated for 1 hr (reference value: 40.5 +/- 0.0 mJ/m2); assay type: subcellular
Cell membrane [29] = experiment: Effect on surface tension of Staphylococcus aureus CECT 976 assessed as Lifshitz-van der Waals at 0.5 times of MIC incubated for 1 hr (reference value: 40.5 +/- 0.0 mJ/m2); assay type: subcellular

CC(C)Cc1ccc(C(C)C(=O)O)cc1 (stereo unspecified) [IBUPROFEN]
Activity (Cell membrane [1]): 1.1 mJ/m2 | Activity (Cell membrane [2]): 0.7 mJ/m2 | Activity (Cell membrane [3]): 12.5 mJ/m2 | Activity (Cell membrane [4]): 13.8 mJ/m2 | Activity (Cell membrane [5]): 11.7 mJ/m2 | Activity (Cell membrane [6]): 38 mJ/m2 | Activity (Cell membrane [7]): 0.54 mg/L | Activity (Cell membrane [8]): 0.49 mg/L | Activity (Cell membrane [9]): 0.51 mg/L | Activity (Cell membrane [10]): 0.51 mg/L | Activity (Cell membrane [11]): 97.9% | Activity (Cell membrane [12]): 99.8% | Activity (Cell membrane [13]): 99.1% | MBC (Staphylococcus aureus [14]): 1600 µg/mL (≈ 7.76 mM) | MBC (Staphylococcus aureus [15]): 1600 µg/mL (≈ 7.76 mM) | MBC (Staphylococcus aureus [16]): > 2000 µg/mL | MBC (Staphylococcus aureus [17]): 1400 µg/mL (≈ 6.79 mM) | MIC [18]: 1250 µg/mL (≈ 6.06 mM) | MIC (Staphylococcus aureus [19]): 1250 µg/mL (≈ 6.06 mM) | MIC (Staphylococcus aureus [20]): 40 µg/mL (≈ 0.194 mM) | MIC (Staphylococcus aureus [21]): 350 µg/mL (≈ 1.7 mM) | MIC (Staphylococcus aureus [22]): > 600 µg/mL | MIC (Staphylococcus aureus [23]): 1600 µg/mL (≈ 7.76 mM) | MIC (Staphylococcus aureus [24]): 1000 µg/mL (≈ 4.85 mM) | MIC (Staphylococcus aureus [25]): 2000 µg/mL (≈ 9.7 mM) | MIC (Staphylococcus aureus [26]): 500 µg/mL (≈ 2.42 mM) | inhibition (INH) (Streptococcus pneumoniae): 37% | inhibition (INH) (Escherichia coli): 37% | inhibition (INH) (Staphylococcus aureus [27]): 100% | Activity (Cell membrane [28]): 39.5 mJ/m2 | Activity (Cell membrane [29]): 37.3 mJ/m2
